This passage reports TGI results from PubChem BioAssay (NCI).

Among the test systems are EKVX NSCLC; CCRF-CEM leukemia; XF 498 CNS; DMS 273 small cell lung; SK-OV-3 ovarian; K-562 leukemia; DLD-1 colon; A549 NSCLC; M19-MEL melanoma; NCI-H226 lung; SNB-78 CNS; KM12 colon; MDA-MB-435.
Holding throughout (assay): NCI-60 cell line screen, 48 h

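Tested at 5 concentrations; 48 h exposure; 96-well plates; endpoints linearly interpolated, else capped at highest concentration. TGI denotes the concentration required for complete inhibition of growth.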

Consider `O=C1c2ccccc2N2OC3(N4CCOCC4)CCCC3C12c1ccccc1` (centres undefined), for which the TGI with EKVX NSCLC, in the test with CCRF-CEM leukemia, in the test on XF 498 CNS, in the test with DMS 273 small cell lung, in the test on SK-OV-3 ovarian and in the test with K-562 leukemia was greater than 100 µM in each case. Besides, the TGI in the test on DLD-1 colon, in the test on A549 NSCLC, in the test with M19-MEL melanoma, in the test with NCI-H226 lung and in the test on SNB-78 CNS was greater than 100 µM throughout.

On to `COC(=O)[C@@]12OC[C@]34C([C@@H](O)C1O)[C@@]1(C)CC(=O)C(OC(=O)CC(C)C(F)(F)F)=C(C)C1C[C@H]3OC(=O)[C@H](O)[C@H]42` (some centres undefined), for which the TGI was greater than 62.5 µM with EKVX NSCLC; greater than 62.5 µM in the test with CCRF-CEM leukemia; 5.18 µM in the test with XF 498 CNS; 11.2 µM with DMS 273 small cell lung; greater than 62.5 µM in the test with SK-OV-3 ovarian; greater than 62.5 µM with K-562 leukemia. In addition, the TGI with KM12 colon is greater than 62.5 µM; in the test with A549 NSCLC, greater than 62.5 µM; with M19-MEL melanoma, 6.25 µM; with NCI-H226 lung it was 14.5 µM; with SNB-78 CNS it was greater than 62.5 µM.

With `CN1CCOC(C(NC(=O)c2ccccc2)c2ccccc2)C1=O` (centres undefined), the TGI in the test with EKVX NSCLC, with CCRF-CEM leukemia, with DMS 273 small cell lung, in the test on SK-OV-3 ovarian, with K-562 leukemia and with DLD-1 colon was greater than 100 µM each time. Moreover, the TGI with KM12 colon, with A549 NSCLC, in the test with M19-MEL melanoma, in the test with NCI-H226 lung and with SNB-78 CNS was greater than 100 µM in each case.

Take `CC(C)(CN1CCCCC1)C(=O)/C=C/c1ccc(Br)cc1`: the TGI in the test on EKVX NSCLC came to 9.13 µM; with CCRF-CEM leukemia, 9.34 µM; with XF 498 CNS it was 6.21 µM; in the test with DMS 273 small cell lung it was 4.92 µM; in the test with SK-OV-3 ovarian, 8.18 µM; in the test with K-562 leukemia, 8.95 µM. The TGI is 10.3 µM in the test with DLD-1 colon; 11.9 µM in the test on KM12 colon; 7.9 µM in the test on A549 NSCLC; greater than 51.8 µM with M19-MEL melanoma; 15.7 µM with NCI-H226 lung; 31.6 µM in the test on SNB-78 CNS.

Take `O=C(c1ccccc1)C1(Br)S(=O)(=O)OCCOS1(=O)=O`: the TGI in the test on EKVX NSCLC, in the test with CCRF-CEM leukemia, with XF 498 CNS, in the test on DMS 273 small cell lung, in the test on SK-OV-3 ovarian and with K-562 leukemia was greater than 100 µM in each case. For the same compound, the TGI in the test on DLD-1 colon, in the test on A549 NSCLC, with M19-MEL melanoma, in the test on NCI-H226 lung and in the test with SNB-78 CNS was greater than 100 µM each time.

For the compound `CCOC(=O)c1c(NC(=O)c2ccccc2)c(C#N)c2n1CCCCC2`, the TGI in the test with EKVX NSCLC, in the test on MDA-MB-435, with CCRF-CEM leukemia, with SK-OV-3 ovarian, with K-562 leukemia and in the test with KM12 colon was greater than 100 µM in each case. Moreover, the TGI with A549 NSCLC and with NCI-H226 lung was greater than 100 µM in each case.

`CCOC(=O)C1S(=O)(=O)OCCOS1(=O)=O`: the TGI with EKVX NSCLC, in the test with CCRF-CEM leukemia, in the test on XF 498 CNS, in the test on DMS 273 small cell lung, in the test on SK-OV-3 ovarian and with K-562 leukemia was greater than 100 µM in each case. In addition, the TGI in the test with DLD-1 colon, in the test on KM12 colon, with A549 NSCLC, with M19-MEL melanoma and with SNB-78 CNS was greater than 100 µM in each case.

In the case of `Cc1ccc(S(=O)(=O)N(CC(O)COc2ccccc2)c2c(F)cccc2F)cc1` (centres undefined), the TGI in the test with EKVX NSCLC was 95.7 µM; with MDA-MB-435 it was 30.5 µM; with CCRF-CEM leukemia, 95.8 µM; in the test on SK-OV-3 ovarian it was 41.3 µM; in the test with K-562 leukemia, greater than 100 µM; in the test with KM12 colon, 56.3 µM. For the same compound, the TGI with A549 NSCLC stood at 40.1 µM; in the test with NCI-H226 lung it was 71.1 µM.

Consider `O=C(O)CCCc1ccc2c(c1)CC1(C2)Cc2cc3c(cc2C1)CCCC3`, for which the TGI with EKVX NSCLC is greater than 100 µM; in the test on MDA-MB-435, 38 µM; with CCRF-CEM leukemia it was 27.9 µM; in the test with SK-OV-3 ovarian, 52.9 µM; in the test on K-562 leukemia, 25.9 µM; with KM12 colon it was 33.6 µM. In addition, the TGI in the test on A549 NSCLC came to 67 µM; in the test on NCI-H226 lung, 61.8 µM.

For the compound `CN(NC1=NCCO1)c1ccc2ccccc2c1`, the TGI with EKVX NSCLC was greater than 100 µM; with MDA-MB-435, greater than 100 µM; in the test on CCRF-CEM leukemia it was 49.5 µM; with SK-OV-3 ovarian, greater than 100 µM; with K-562 leukemia it was 66.1 µM; with KM12 colon it was greater than 100 µM. Moreover, the TGI with A549 NSCLC and in the test on NCI-H226 lung was greater than 100 µM each time.
